# Source: US20170304228A1, “NEW INDICATION OF CINACALCET HCL PHARMACEUTICAL COMPOSITION FOR TREATING CANCER” (LAUNX BIOMEDICAL CO., LTD., priority 2014, published 2017)
# Where “and” joins values, the source holds several entries; their conditions need not be identical. Identical values can stand only once. Counter-ions that a name gives are not always drawn. Like-named read-outs stand apart in the source and are kept apart here.
# Key:
# SAS = experiment: Cell viability analysis (WST-1), SAS; type: cell-based
# Protocol: (§1) The cell numbers were counted and reseed as 2×10^6 in culture plate/flask. Then, the culture medium were added to a volume of 10 ml, and the cells were cultured for 2-3 days. Then, the cells were suspended for loading into 96-well plates. The number of cells was 3000 and the volume of the culture medium was 100 μl each well.
# (§2) Removing the original culture medium from 96-well plate. Then add 100 μl of commercially drug at a concentration of 10 μM per well. After 72 hours, add the diluted WST-1 reagent to the well with 100 μl/well, and the diluted WST-1 reagent was acquired from the dilution of 9:1 medium and WST-1 stock reagent. Finally, the total volume of each well was 200 μl/well. Culture the 96-well plate at 37° C. for 30 to 90 minutes. Detecting and calculate the survival rate of each cancer cells with an ELISA reader at OD450 nm. The lower viability of cancer cells represents better inhibition effect via the Cinacalcet HCl drug. Otherwise, the higher viability of cancer cells represents worse inhibition effect via the Cinacalcet HCl drug.
# (§3) This inhibition test of Cinacalcet HCl on gastrointestinal tract-related cancer cells were using gastric cancer cell lines AGS and MKN-45 (Table 9), hepatic cancer cell lines HepG2 and Hep3B (Table 10), colorectal cancer cell lines HCT116-wt and LoVo (Table 11), pancreatic cancer cell line AsPC-1 and BxPC-3(Table 12), tongue cancer cell line SAS (Table 13). The inhibitory tests of Cinacalcet HCl were performed 4 times for each cell lines and then the average value of the inhibitory tests was calculated.
# NIH-OVCAR-3 = experiment: Cell viability analysis (WST-1), NIH-OVCAR-3; type: cell-based; settings: Homo sapiens, read-out: survival rate (viability) of cells
# Protocol: as §1, §2
# (§4) This inhibition test of Cinacalcet HCl on endocrine-related cancer cells were using prostate cancer cell lines PC-3 and LNCap (Table 6), breast cancer cell lines MCF7 and MDA-MB-231 (Table 7), and ovarian cancer cell lines NIH-OVCAR-3 and TOV-21G (Table 8). The inhibitory tests of Cinacalcet HCl were performed 4 times for each cell lines and then the average value of the inhibitory tests was calculated.
# A549 = experiment: Cell viability analysis (WST-1), A549; type: cell-based; settings: Homo sapiens, read-out: survival rate (viability) of cells
# Protocol: as §1, §2
# This inhibition test of Cinacalcet HCl on pleural-related cancer cells were using two lung cancer cell lines A549 and H1650. The inhibitory tests of Cinacalcet HCl were performed 4 times for each cell lines and then the average value of the inhibitory tests was calculated.
# cervical cancer cells = experiment: Summary of cell viability, cervical cancer cells; type: cell-based; settings: 72 hours, read-out: Inhibitory effect
# Protocol: as §1, §2
# (§5) Cinacalcet HCl is having different inhibitory effect on different tumor cell type even in the same cancer. […] (FIG. 1)
# HCT116-wt = experiment: Cell viability analysis (WST-1), HCT116-wt; type: cell-based; settings: read-out: survival rate (viability) of cells
# Protocol: as §1, §2, §3
# [1] = test system: gastric cancer cells (AGS); experiment: Animal model test of gastric cancer, tumor size; type: in vivo, mice
# Protocol: In this invention, the female mice were(BALB/cAnN.Cg-Foxnl™/CrlNarl) and purchased from National Laboratory Animal Center (Taiwan). The weight of the mice were 21±1 g. These mice were subcutaneously injected with gastric cancer cells (AGS) and then put these mice into different cages at random. The drug test experiment was divided into three groups, include “control group”, “low dose group (100 mg/kg/day)”, “high dose group (200 mg/kg/day)”. These mice were then injected test drug intraperitoneally once daily […]. The tumor sizes and body weight were measured twice a week. The tumor sizes were measured and calculated by formula: (L×W^2)/2. L represents the tumor longest length. W represents the tumor shortest diameter.
# AsPC-1 = experiment: Cell viability analysis (WST-1), AsPC-1; type: cell-based; settings: Homo sapiens, read-out: survival rate (viability) of cells
# Protocol: as §1, §2, §3
# TOV-21G = experiment: Cell viability analysis (WST-1), TOV-21G; type: cell-based; settings: Homo sapiens, TOV21G, read-out: survival rate (viability) of cells
# Protocol: as §1, §2, §4
# breast cancer cells = experiment: Summary of cell viability, breast cancer cells; type: cell-based; settings: 72 hours, read-out: Inhibitory effect
# Protocol: as §1, §2, §5
# [2] = Low dose (100 mg/kg/day) intraperitoneally, First measurement, average
# [3] = Low dose (100 mg/kg/day) intraperitoneally, First measurement, single mice A, B, C, hydrochloride, 100 mg/kg/day
# [4] = Low dose (100 mg/kg/day) intraperitoneally, Fourth measurement, average
# [5] = Low dose (100 mg/kg/day) intraperitoneally, Fourth measurement, single mice A, B, C, hydrochloride, 100 mg/kg/day
# [6] = Low dose (100 mg/kg/day) intraperitoneally, Second measurement, average
# [7] = Low dose (100 mg/kg/day) intraperitoneally, Second measurement, single mice A, B, C, hydrochloride, 100 mg/kg/day
# [8] = Low dose (100 mg/kg/day) intraperitoneally, Third measurement, average
# [9] = both low dose and high dose, FIG. 3
# [10] = high dose (200 mg/kg/day) intraperitoneally, First measurement, average
# [11] = high dose (200 mg/kg/day) intraperitoneally, First measurement, single mice A, B, C, hydrochloride, 200 mg/kg/day
# [12] = high dose (200 mg/kg/day) intraperitoneally, Fourth measurement, average
# [13] = high dose (200 mg/kg/day) intraperitoneally, Second measurement, average
# [14] = high dose (200 mg/kg/day) intraperitoneally, Second measurement, single mice A, B, C, hydrochloride, 200 mg/kg/day
# [15] = high dose (200 mg/kg/day) intraperitoneally, Third measurement, average
# [16] = high dose (200 mg/kg/day) intraperitoneally, Third measurement, single mice A, B, C, hydrochloride, 200 mg/kg/day
structure (smiles),measurement,setting,value
"C[C@@H](NCCCc1cccc(C(F)(F)F)c1)c1cccc2ccccc12 [Cinacalcet HCl, Cinacalcet hydrochloride]",viability at 10 µM,"SAS; 72 h, average of tests, read-out: survival rate (viability) of cells",82.4%
same,viability at 10 µM,"SAS; 72 h, summary, tongue cancer, read-out: Inhibitory effect",77.4%
same,viability at 10 µM,"SAS; 72 hours, test 6-26-10 min, read-out: survival rate (viability) of cells",45.7%
same,viability at 10 µM,"SAS; 72 hours, test 6-28-10 min, read-out: survival rate (viability) of cells",88.9%
same,viability at 10 µM,"SAS; 72 hours, test 6-30-10 min, read-out: survival rate (viability) of cells",96.2%
same,viability at 10 µM,"SAS; 72 hours, test 7-3-10 min, read-out: survival rate (viability) of cells",98.9%
same,viability at 10 µM,"NIH-OVCAR-3; OVCAR-3, 10 μM, 72 hours, test 7-3-30 min",90.7%
same,viability at 10 µM,"NIH-OVCAR-3; OVCAR-3, 10 μM, 72 hours, test 7-4-30 min",111%
same,viability at 10 µM,"NIH-OVCAR-3; OVCAR-3, 10 μM, 72 hours, test 7-7-30 min",100%
same,viability at 10 µM,"NIH-OVCAR-3; OVCAR-3, 10 μM, 72 hours, test -4-30 min",111%
same,viability at 10 µM,"NIH-OVCAR-3; OVCAR-3, 72 h, 10 μM, average of tests",103%
same,viability at 10 µM,"A549; A549, 10 μM, 72 hours, test 0524-10 min",87.7%
same,viability at 10 µM,"A549; A549, 10 μM, 72 hours, test 0526-10 min",103%
same,viability at 10 µM,"A549; A549, 10 μM, 72 hours, test 0529-10 min",75.5%
same,viability at 10 µM,"A549; A549, 10 μM, 72 hours, test 0531-10 min",92.6%
same,viability at 10 µM,"A549; A549, 72 h, 10 μM, Average of tests",89.6%
same,viability at 10 µM,cervical cancer cells,111%
same,viability at 10 µM,"HCT116-wt; 72 h, average of tests",110%
same,viability at 10 µM,"HCT116-wt; 72 hours, test 0602-30 min",89%
same,viability at 10 µM,"HCT116-wt; 72 hours, test 0605-10 min",107%
same,viability at 10 µM,"HCT116-wt; 72 hours, test 0607-10 min",132%
same,viability at 10 µM,"HCT116-wt; 72 hours, test 0609-10 min",113%
same,tumor volume,[1]; [2],592 mm3
same,tumor volume growth,[1]; [2],592 mm3
same,tumor longest length,[1]; [3],11 mm and 13 mm and 14 mm
same,tumor width,[1]; [3],8 mm and 12 mm
same,tumor volume,[1]; [4],562.1667 mm3
same,tumor volume growth,[1]; [4],−240.3333 mm3
same,tumor longest length,[1]; [5],10 mm and 14 mm and 13 mm
same,tumor width,[1]; [5],7 mm and 13 mm
same,tumor volume,[1]; [6],277.5 mm3
same,tumor volume growth,[1]; [6],−314.5 mm3
same,tumor longest length,[1]; [7],8 mm and 16 mm and 9 mm
same,tumor width,[1]; [7],5 mm and 8 mm and 7 mm
same,tumor volume,[1]; [8],802.5 mm3
same,tumor volume growth,[1]; [8],525 mm3
same,inhibition effect on tumor cells,"[1]; both low dose and high dose, FIG. 2",significant inhibition effect
same,tumor volume,[1]; [9],can also reduce the tumor volume
same,tumor volume growth,[1]; [9],effectively slow down the tumor volume growth
same,tumor volume,[1]; [10],81.17 mm3
same,tumor volume growth,[1]; [10],81.17 mm3
same,tumor longest length,[1]; [11],7 mm and 6 mm
same,tumor width,[1]; [11],5 mm and 6 mm and 4 mm
same,tumor volume,[1]; [12],22.33 mm3
same,tumor volume growth,[1]; [12],−56.8333 mm3
same,tumor volume,[1]; [13],131.1667 mm3
same,tumor volume growth,[1]; [13],50 mm3
same,tumor longest length,[1]; [14],7 mm and 6 mm
same,tumor width,[1]; [14],7 mm and 5 mm
same,tumor volume,[1]; [15],79.17 mm3
same,tumor volume growth,[1]; [15],−52 mm3
same,tumor width,"[1]; high dose (200 mg/kg/day) intraperitoneally, Third measurement, single mice A, B, C",5 mm
same,tumor longest length,[1]; [16],7 mm and 6 mm
same,tumor volume,[1]; [16],87.5 mm3 and 75 mm3
same,"inhibition of tumor growth, high doses compared with low dose","[1]; high doses, FIG. 3",better effect to inhibit tumor growth
same,viability at 10 µM,"AsPC-1; ASPC1, 10 μM, 72 hours, test 1-4-30 min",71.9%
same,viability at 10 µM,"AsPC-1; ASPC1, 10 μM, 72 hours, test 1-7-3-30 min",61.6%
same,viability at 10 µM,"AsPC-1; ASPC1, 10 μM, 72 hours, test 1-7-4-30 min",81.7%
same,viability at 10 µM,"AsPC-1; ASPC1, 10 μM, 72 hours, test 1-7-7-30 min",60.4%
same,viability at 10 µM,"AsPC-1; ASPC1, 72 h, 10 μM, Average of tests",68.9%
same,viability at 10 µM,"TOV-21G; 72 h, average of tests",113%
same,viability at 10 µM,"TOV-21G; 72 hours, test 7-3-30 min",129%
same,viability at 10 µM,"TOV-21G; 72 hours, test 7-4-30 min",109%
same,viability at 10 µM,"TOV-21G; 72 hours, test 7-7-30 min",104%
same,viability at 10 µM,"TOV-21G; 72 hours, test -4-30 min",108%
same,viability at 10 µM,breast cancer cells,108%
